Results reported in ChEMBL document CHEMBL6182948 (J Med Chem, 2025).

Columns and labels:
[1] = Stability in human plasma assessed as compound remaining at 100 uM measured after 15 mins by LC-MS/MS analysis; format: ADME, cell-free; conditions: read-out: Stability
[2] = Stability in human plasma assessed as compound remaining at 100 uM measured after 60 mins by LC-MS/MS analysis; format: ADME, cell-free; conditions: read-out: Stability
[3] = Stability in human plasma assessed as compound remaining at 100 uM measured after 120 mins by LC-MS/MS analysis; format: ADME, cell-free; conditions: read-out: Stability
[4] = Stability in human plasma assessed as compound remaining at 100 uM measured after 5 mins by LC-MS/MS analysis; format: ADME, cell-free; conditions: read-out: Stability
[5] = Stability in human plasma assessed as compound remaining at 100 uM measured after 30 mins by LC-MS/MS analysis; format: ADME, cell-free; conditions: read-out: Stability
CYP2D6 = CYP2D6 (Homo sapiens, UniProt P10635); test: Inhibition of CYP2D6 in human liver microsome at 3 uM pre-incubated with compound for 5 mins followed NADPH addition and measured after 10 mins by LC-MS/MS analysis relative to control; conditions: liver microsomes
Chain of CYP2D6 (P10635 whole entry): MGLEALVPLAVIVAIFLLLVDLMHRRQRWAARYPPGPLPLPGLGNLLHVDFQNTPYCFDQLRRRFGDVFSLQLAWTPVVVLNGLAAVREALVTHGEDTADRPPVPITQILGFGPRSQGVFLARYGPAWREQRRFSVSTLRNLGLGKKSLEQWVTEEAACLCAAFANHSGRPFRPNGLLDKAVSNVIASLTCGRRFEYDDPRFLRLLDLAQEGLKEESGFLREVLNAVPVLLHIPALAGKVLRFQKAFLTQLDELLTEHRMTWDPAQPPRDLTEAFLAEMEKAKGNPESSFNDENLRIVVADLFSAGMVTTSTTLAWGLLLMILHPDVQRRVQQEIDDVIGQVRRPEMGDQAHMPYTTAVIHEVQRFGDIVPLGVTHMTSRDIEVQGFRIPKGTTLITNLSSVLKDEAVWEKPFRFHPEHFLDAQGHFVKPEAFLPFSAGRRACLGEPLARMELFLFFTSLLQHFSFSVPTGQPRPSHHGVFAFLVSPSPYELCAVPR

CYP2C8 = molecular target: T1, CYP2C8 (Homo sapiens, UniProt P10632); test: Inhibition of CYP2C8 in human liver microsome at 10 uM pre-incubated with compound for 5 mins followed NADPH addition and measured after 5 mins by LC-MS/MS analysis relative to control; format: ADME; conditions: liver microsomes, time 10 min
T1 sequence (P10632 whole entry): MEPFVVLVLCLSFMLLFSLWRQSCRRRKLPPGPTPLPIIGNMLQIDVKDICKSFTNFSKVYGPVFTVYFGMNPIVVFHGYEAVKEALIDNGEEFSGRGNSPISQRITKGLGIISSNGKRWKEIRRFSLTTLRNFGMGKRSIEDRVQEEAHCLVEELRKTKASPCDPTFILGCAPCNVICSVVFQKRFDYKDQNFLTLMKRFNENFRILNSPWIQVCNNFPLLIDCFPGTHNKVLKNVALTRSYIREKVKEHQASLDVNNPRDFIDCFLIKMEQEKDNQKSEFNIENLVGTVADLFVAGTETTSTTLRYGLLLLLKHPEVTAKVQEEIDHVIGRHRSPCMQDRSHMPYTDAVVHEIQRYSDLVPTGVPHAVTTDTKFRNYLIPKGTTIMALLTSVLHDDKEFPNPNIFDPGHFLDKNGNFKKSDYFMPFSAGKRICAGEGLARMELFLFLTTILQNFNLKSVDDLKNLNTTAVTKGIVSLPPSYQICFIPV

CYP2C9 = CYP2C9 (Homo sapiens, UniProt P11712); test: Inhibition of CYP2C9 in human liver microsome at 3 uM pre-incubated with compound for 5 mins followed NADPH addition and measured after 10 mins by LC-MS/MS analysis relative to control; conditions: liver microsomes
Chain of CYP2C9 (P11712 whole entry): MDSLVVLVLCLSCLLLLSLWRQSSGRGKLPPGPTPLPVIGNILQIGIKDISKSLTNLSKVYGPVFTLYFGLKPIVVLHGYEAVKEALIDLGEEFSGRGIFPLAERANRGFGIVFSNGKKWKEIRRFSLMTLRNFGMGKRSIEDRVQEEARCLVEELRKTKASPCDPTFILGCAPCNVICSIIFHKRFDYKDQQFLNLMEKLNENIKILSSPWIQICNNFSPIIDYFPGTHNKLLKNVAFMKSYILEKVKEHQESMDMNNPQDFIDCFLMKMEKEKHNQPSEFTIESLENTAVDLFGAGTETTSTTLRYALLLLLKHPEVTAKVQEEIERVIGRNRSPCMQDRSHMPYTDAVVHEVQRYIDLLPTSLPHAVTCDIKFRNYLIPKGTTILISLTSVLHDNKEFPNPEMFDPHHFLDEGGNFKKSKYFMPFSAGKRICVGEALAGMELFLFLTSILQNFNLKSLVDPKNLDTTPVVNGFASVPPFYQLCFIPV

A549 = test: Antiproliferative against human A549 cells assessed as inhibition of cell viability incubated for 48 hrs by CCK-8 assay; format: functional, cell-based; conditions: A549, 48 h
A549/TR [6] = test: Inhibition of cell invasion in human A549/Taxol cells assessed as invasive cells at 5 uM incubated for 24 hrs by transwell invasion assay relative to control; format: functional; set-up: scale not given: the % may be the effect or the level left
Cytochrome P450 1A2 = molecular target: T2, Cytochrome P450 1A2 (Homo sapiens, UniProt P05177); test: Inhibition of human recombinant CYP1A2 using 7-ethoxyresorufin as substrate incubated under dark condition for 45 mins in presence of NADPH by EROD fluorescence assay; format: ADME
T2 sequence (P05177 whole entry): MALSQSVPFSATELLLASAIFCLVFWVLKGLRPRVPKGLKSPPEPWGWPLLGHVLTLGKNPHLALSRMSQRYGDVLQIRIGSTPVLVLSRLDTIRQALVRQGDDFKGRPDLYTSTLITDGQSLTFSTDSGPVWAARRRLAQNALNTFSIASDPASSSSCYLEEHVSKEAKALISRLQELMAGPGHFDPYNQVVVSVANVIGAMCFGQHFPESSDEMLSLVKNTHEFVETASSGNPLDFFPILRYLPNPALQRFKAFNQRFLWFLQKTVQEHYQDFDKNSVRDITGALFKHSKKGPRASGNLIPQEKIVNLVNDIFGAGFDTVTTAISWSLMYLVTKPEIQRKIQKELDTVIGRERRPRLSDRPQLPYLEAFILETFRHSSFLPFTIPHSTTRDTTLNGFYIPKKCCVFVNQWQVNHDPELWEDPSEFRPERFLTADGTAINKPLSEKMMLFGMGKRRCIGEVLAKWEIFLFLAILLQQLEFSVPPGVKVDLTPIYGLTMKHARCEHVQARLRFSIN

CYP1B1 = molecular target: T3, CYP1B1 (Homo sapiens, UniProt Q16678); test: Inhibition of human recombinant CYP1B1 using 7-ethoxyresorufin as substrate at 100 uM incubated under dark condition for 30 mins in presence of NADPH by EROD fluorescence assay relative to control; format: ADME; conditions: recombinant CYP1B1, probe 7-ethoxyresorufin
T3 sequence (Q16678 whole entry): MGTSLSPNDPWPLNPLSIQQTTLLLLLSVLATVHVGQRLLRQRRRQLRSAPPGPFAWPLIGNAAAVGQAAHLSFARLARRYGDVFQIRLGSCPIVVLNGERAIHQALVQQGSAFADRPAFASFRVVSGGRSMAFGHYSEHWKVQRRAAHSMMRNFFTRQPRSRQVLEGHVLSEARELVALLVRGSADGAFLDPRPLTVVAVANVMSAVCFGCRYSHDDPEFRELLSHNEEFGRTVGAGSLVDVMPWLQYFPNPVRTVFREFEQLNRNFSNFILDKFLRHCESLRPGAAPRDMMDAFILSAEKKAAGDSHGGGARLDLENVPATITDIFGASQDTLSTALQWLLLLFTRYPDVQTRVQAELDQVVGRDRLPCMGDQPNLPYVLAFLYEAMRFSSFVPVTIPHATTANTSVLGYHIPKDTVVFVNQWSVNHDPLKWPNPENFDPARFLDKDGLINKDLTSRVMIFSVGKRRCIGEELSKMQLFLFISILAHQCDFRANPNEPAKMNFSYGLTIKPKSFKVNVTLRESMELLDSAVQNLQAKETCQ

[7] = Cytotoxicity against human BEAS-2B cells assessed as inhibition of cell viability incubated for 48 hrs by CCK-8 assay; format: toxicity, cell-based
A549/TR [8] = test: Inhibition of cell migration in human A549/Taxol cells assessed as wound closure at 5 uM measured after 24 hrs by scratch-wound healing assay relative to control; format: functional; set-up: scale not given: the % may be the effect or the level left
[9] = Cytotoxicity against HUVEC assessed as inhibition of cell viability incubated for 48 hrs by CellTiter Glo assay; format: toxicity, cell-based; conditions: human, HUVEC cells
Homo sapiens [10] = organism: Homo sapiens; test: Selectivity index, ratio of IC50 for human recombinant CYP1A1 to IC50 for human recombinant CYP1B1 using 7-ethoxyresorufin as substrate
Cytochrome P450 1B1 = molecular target: T4, Cytochrome P450 1B1 (Homo sapiens, UniProt Q16678); test: Inhibition of human recombinant CYP1B1 using 7-ethoxyresorufin as substrate incubated under dark condition for 30 mins in presence of NADPH by EROD fluorescence assay; format: ADME
T4 sequence (Q16678 whole entry): T3 sequence (Q16678 whole entry)

Homo sapiens [11] = organism: Homo sapiens; test: Selectivity index, ratio of IC50 for human recombinant CYP1A2 to IC50 for human recombinant CYP1B1 using 7-ethoxyresorufin as substrate
Cytochrome P450 1A1 = molecular target: T5, Cytochrome P450 1A1 (Homo sapiens, UniProt P04798); test: Inhibition of human recombinant CYP1A1 using 7-ethoxyresorufin as substrate incubated under dark condition for 15 mins in presence of NADPH by EROD fluorescence assay; format: ADME
T5 sequence (P04798 whole entry): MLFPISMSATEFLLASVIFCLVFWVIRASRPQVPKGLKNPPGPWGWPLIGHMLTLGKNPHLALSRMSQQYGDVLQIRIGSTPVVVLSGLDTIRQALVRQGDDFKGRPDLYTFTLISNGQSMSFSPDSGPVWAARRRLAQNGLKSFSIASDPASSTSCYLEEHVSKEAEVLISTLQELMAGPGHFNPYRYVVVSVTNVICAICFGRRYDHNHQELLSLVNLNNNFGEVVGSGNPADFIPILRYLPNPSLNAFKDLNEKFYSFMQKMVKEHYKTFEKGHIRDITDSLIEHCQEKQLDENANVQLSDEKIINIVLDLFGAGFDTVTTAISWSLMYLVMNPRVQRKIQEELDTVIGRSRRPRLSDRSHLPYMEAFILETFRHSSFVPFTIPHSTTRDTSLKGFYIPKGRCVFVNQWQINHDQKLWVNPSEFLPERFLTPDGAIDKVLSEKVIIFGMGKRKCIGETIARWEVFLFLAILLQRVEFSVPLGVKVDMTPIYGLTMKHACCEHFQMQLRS

[12] = Metabolic stability in liver microsome (unknown origin) assessed as intrinsic clearance at 0.5 mg/mL measured up to 60 mins by LC-MS/MS analysis; format: ADME; conditions: human, liver microsomes, read-out: CLH
[13] = Metabolic stability in liver microsomes (unknown origin) assessed as half life at 0.5 mg/ml measured up to 60 mins by LC-MS/MS analysis; format: ADME, Microsome; conditions: human
A549/TR [14] = test: Antiproliferative activity against human A549/Taxol cells assessed inhibition of cell viability incubated for 48 hrs by CCK-8 assay; format: functional, cell-based
[15] = Selectivity ratio of IC50 for antiproliferative activity against human A549/Taxol cells to IC50 for antiproliferative activity against human A549 cells; format: functional
CYP2C19 = CYP2C19 (Homo sapiens, UniProt P33261); test: Inhibition of CYP2C19 in human liver microsome at 3 uM pre-incubated with compound for 5 mins followed NADPH addition and measured after 30 mins by LC-MS/MS analysis relative to control; format: ADME; conditions: liver microsomes, time 35 min
Chain of CYP2C19 (P33261 whole entry): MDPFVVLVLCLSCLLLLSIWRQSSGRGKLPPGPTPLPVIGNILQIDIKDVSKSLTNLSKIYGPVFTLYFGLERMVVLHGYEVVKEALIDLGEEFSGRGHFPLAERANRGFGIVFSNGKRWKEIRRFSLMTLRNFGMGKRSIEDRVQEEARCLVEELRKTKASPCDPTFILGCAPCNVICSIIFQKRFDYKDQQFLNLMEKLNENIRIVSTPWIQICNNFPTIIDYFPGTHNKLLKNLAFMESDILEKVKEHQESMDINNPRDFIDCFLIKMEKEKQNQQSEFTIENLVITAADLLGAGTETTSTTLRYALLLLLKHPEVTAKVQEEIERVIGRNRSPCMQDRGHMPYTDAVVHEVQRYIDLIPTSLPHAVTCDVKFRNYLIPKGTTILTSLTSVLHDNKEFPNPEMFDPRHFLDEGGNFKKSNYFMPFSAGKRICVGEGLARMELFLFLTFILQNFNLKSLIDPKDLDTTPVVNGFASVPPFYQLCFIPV

SMILES	IC50 (Cytochrome P450 1A2)	inhibition at 0.5 h, 100 µM (CYP1B1)	Ratio IC50 (Homo sapiens [10])	IC50 (Cytochrome P450 1B1)	Ratio IC50 (Homo sapiens [11])	IC50 (Cytochrome P450 1A1)	further results
CC(C)[N+](C)(CCOC(=O)C1c2ccccc2Oc2ccccc21)C(C)C [PROPANTHELINE BROMIDE]	–	–	–	–	–	–	remaining at 0.25 h, 100 µM [1]: 66.5%; remaining at 1 h, 100 µM [2]: 11.6%; remaining at 2 h, 100 µM [3]: 1.7%; remaining at 5 min, 100 µM [4]: 90.7%; remaining at 0.5 h, 100 µM [5]: 41.3%
C=C[C@H]1C[N@@]2CC[C@H]1C[C@@H]2[C@@H](O)c1ccnc2ccc(OC)cc12 [QUINIDINE]	–	–	–	–	–	–	inhibition at 10 min, 3 µM (CYP2D6): 89.3%
O=c1c(O)c(-c2ccc(O)c(O)c2)oc2cc(O)cc(O)c12 [QUERCETIN]	–	–	–	–	–	–	inhibition at 5 min, 10 µM (CYP2C8): 77.2%
Nc1ccc(S(=O)(=O)Nc2ccnn2-c2ccccc2)cc1 [SULFAPHENAZOLE]	–	–	–	–	–	–	inhibition at 10 min, 3 µM (CYP2C9): 79%
COc1cc(/C=C/c2ccc(OC)cc2OC)cc(OC)c1	1.94 µM	103%	–	–	–	–	IC50 (A549): 7.9 µM; Activity (A549/TR [6]): 40.2%; IC50 at 48 h [7]: 2.9 µM; Activity (A549/TR [8]): 12.6%; IC50 at 48 h [9]: > 40 µM
O=C(O)Cc1ccccc1Nc1c(Cl)cccc1Cl [DICLOFENAC]	–	–	–	–	–	–	CLint scaled [12]: 226 mL/min/kg; half-life [13]: 5.5 min
CC(=O)O[C@H]1C(=O)[C@@]2(C)[C@H]([C@H](OC(=O)c3ccccc3)[C@]3(O)C[C@H](OC(=O)[C@H](O)[C@@H](NC(=O)c4ccccc4)c4ccccc4)C(C)=C1C3(C)C)[C@]1(OC(C)=O)CO[C@@H]1C[C@@H]2O [PACLITAXEL]	–	–	–	–	–	–	IC50 (A549): 0.0314 µM; IC50 (A549/TR [14]): 8.29 µM; Ratio IC50 [15]: 263.8
CCC1(c2ccccc2)NC(=O)N(Cc2ccccc2)C1=O (configuration not stated)	–	–	–	–	–	–	inhibition at 0.5 h, 3 µM (CYP2C19): 89.8%

The next lines start with results.

IC50 (Cytochrome P450 1A2)	inhibition at 0.5 h, 100 µM (CYP1B1)	Ratio IC50 (Homo sapiens [10])	IC50 (Cytochrome P450 1B1)	Ratio IC50 (Homo sapiens [11])	IC50 (Cytochrome P450 1A1)	SMILES	further results
0.899 µM	95%	42	0.0112 µM	80.2	0.471 µM	COc1ccc(NC(=O)c2nc(-c3ccccc3)cs2)cc1	–
0.0024 µM	102%	7.2	0.00149 µM	1.6	0.0108 µM	O=C(Nc1ccc(-n2ccnc2)cc1)c1nc(-c2ccccc2)cs1	–
0.221 µM	86.7%	11.7	0.024 µM	9.2	0.28 µM	O=C(Nc1ccc(F)cc1)c1nc(-c2ccccc2)cs1	–
0.465 µM	82.2%	9	0.0239 µM	19.4	0.215 µM	O=C(Nc1cccc(F)c1)c1nc(-c2ccccc2)cs1	–
0.619 µM	96.5%	13.3	0.0173 µM	35.9	0.23 µM	COc1cc(Cl)cc(NC(=O)c2nc(-c3ccccc3)cs2)c1	–
0.611 µM	91.2%	18.4	0.022 µM	27.8	0.404 µM	COc1ccc(OC)c(NC(=O)c2nc(-c3ccccc3)cs2)c1	–
